Assay results published in patent US20250090626A1, “NEW PEPTIDE AND USES THEREOF” (Neo Cremar Co., Ltd., priority 2021, published 2025).

Tests used:
Type in all cases: cell-based, mouse
C2C12 cells [1] = assay: C2C12 cell proliferation (MTT method)
Protocol: C2C12 cells, a mouse myoblast line, were cultured in Dulbecco's Modified Eagle's Medium (DMEM)+10% fetal bovine serum (FBS)+1% penicillin/streptomycin (P/S). To validate the effect of MIF peptide, C2C12 cells (2×10^3 cells/ml) were placed in a 12 well cell culture dish and attached for 24 hours, and MIF peptide (1000 nM) was treated for 1 day to observe cell proliferation by MTT method. The medium was replaced every 2 days, and the cells were cultured at 37° C.
To validate cell proliferation, the culture medium of the cells was removed, the cells were washed with DMEM, 500 μl of MTT reagent (0.5 mg/ml) dissolved in phosphate buffered saline (PBS) was added to each well, and the cells were left at 37° C. for 1 hour. The reaction solution was removed, and 1000 μl of DMSO was added to each well. Purple formazan crystals were completely dissolved in DMSO, and the absorbance was measured at 540 nm.

C2C12 cells [2] = assay: Myodifferentiation, Giemsa staining, root canal formation and fusion index
Protocol: When C2C12 cells were 70% grown, media were replaced with myodifferentiation medium added with MSTN protein (1 ng), Ac-MIF1 (1000 nM), and Ac-MIF1 (1000 nM)+MSTN protein (1 ng) from proliferation medium, followed by culture for 3 days.
When the cells grew more than 70% for differentiation of myoblasts into myocytes, they were cultured for 3 days by replacing with a differentiation medium (DMEM+2% FBS+1% P/S). The medium was replaced once daily, and the cells were cultured at 37° C.
The cell medium was removed, and the cells were washed with PBS. After washing, a methanol:PBS reagent in a 1:1 volume ratio was treated, followed by fixation for 2 minutes. Additionally, after a methanol:PBS reagent in a 2:1 volume ratio was added, fixation was followed for additional 2 minutes. After 2 minutes, 0.04% Giemsa reagent was added, and then the cells were left for 30 minutes, washed with PBS after 30 minutes, and observed under a microscope, with 3 photographs taken for each cell (300×). In the photographs taken, the number of fused nuclei in the root canal cells was counted, the number of nuclei of total cells was counted, and the number of fused nuclei was divided by the number of nuclei of the total cells to obtain the % value.

C2C12 cells [3] = assay: Scratch experiment, degree of cell recovery; settings: C2C12, 1000 nM peptide, 1 day in proliferation medium
Protocol: When the C2C12 cells were 100% grown, cells were scratches on the surface, treated with 1000 nM MIF1 or Ac-MIF1 peptides, and cultured for 1 day, followed by observation for a degree of cell recovery.

C2C12 cells [4] = assay: mRNA expression of myodifferentiation and sarcopenia factors (real-time PCR); settings: C2C12 myodifferentiation, peptide-treated vs untreated
Protocol: After adding 1 ml of TRIzol™ reagent, the cells were crushed using a sonicator. After centrifugation of the crushed sample (12,000 rpm, 10 min, 4° C.), the supernatant was transferred to a new tube, added with 200 μl of chloroform, and left at room temperature for 10 minutes. After 10 minutes, centrifugation (12,000 rpm, 10 min, 4° C.) was performed, yielded a transparent supernatant. Next, 500 μl of isopropanol was added, the mixture was left for 10 minutes, and centrifugation was performed to obtain RNA pellets. After washing by adding 70% ethanol (distilled water treated with ethanol+diethylpyrocarbonate (hereinafter referred to as DEPC)) to the RNA pellets, complete removal and drying were followed. The dried transparent RNA was added with DEPC-treated distilled water and then stored at −80° C. Total RNA volume was measured by nanodrop, and the 18s and 28s bands were detected in 1.2% agarose gel. cDNA was synthesized with 2 μg of total RNA, random hexamer primers, and reverse transcriptase (25° C.: 10 min, 37° C.: 120 min, 85° C.: 5 min).
Real-time PCR (RT-PCR) was performed for detecting gene expression. For observation of real-time gene expression, gene expression was analyzed using the Power SYBR Green PCR Master Mix, which includes fluorescent materials of SYBR green (7500 Real-time PCR system). The PCR primer was designed with Primer 3 software (http://frodo.wi.mit.edu) according to the nucleotide sequence secured from NCBI GenBank. PCR was performed 40 times at 95° C. for 10 minutes, again at 95° C. for 33 seconds, at gene primer temperature (tm) for 33 seconds, and at 72° C. for 33 seconds. Gene expression values were analyzed through the analysis of c(t) values obtained through real-time PCR analysis (fold change 2-^ΔΔCt formula). Setting the gene expression value of the untreated cells to 1, the gene expression value of the treated cells was calculated. In the analysis of gene c(t) values, normalization was conducted with the glyceraldehyde-3-phosphate dehydrogenase (GAPDH).

C2C12 cells [5] = assay: Protein expression of myodifferentiation and sarcopenia factors (Western blot, immunocytochemistry); settings: C2C12 myodifferentiation, peptide-treated vs untreated
Protocol: The medium of cultured C2C12 cells was removed and washed once with PBS. The washed cells were treated with 4% formaldehyde (Sigma), fixed for 15 minutes, then washed using PBS, added with 0.2% trypton X-100 (Sigma), and left for 5 minutes. After washing again using PBS, adding 1% normal goat serum, and leaving for 30 minutes, the primary antibody (MYOD, myogenin (MYOG):myosin light chain (MYL2); 1:50) was added to carry out a reaction at 4° C. for 14 hours. The antibodies were removed, washing was performed 3 times with PBS for 10 minutes, and then the cells were left with secondary antibody (Alexa Fluor 488 goat anti-Mouse & rabbit SFX kit t) for 1 hour. After 1 hour, the antibodies were removed, washing was performed with PBS for 10 minutes, the nuclei were stained with 4′,6-diamidino-2-phenylindol (DAPI), and the expression of the proteins was observed using fluorescence microscopy.
(1) The medium of cultured C2C12 cells was removed, followed by washing with PBS. After adding LIPA buffer and protease inhibitor to the washed cells, the proteins included in the supernatant were collected after centrifugation for 10 minutes at 12000 rpm. 40 μg of the extracted proteins were subjected to electrophoresis in 8 to 10% acrylamide gel and then transferred to a polyvinylidene fluoride (PVDF) membrane (Milipore). These were blocked with 3% skim milk or bovine serum albumin (BSA) at room temperature for 1 hour. Afterwards, primary antibody diluted in 1% skim milk or BSA (Pax7; 1:500, MYOD; 1:500, MYOG; 1:400, MYL2; 1:1000, MYH; 1:500, MSTN; 1:1000, β-actin; 1:1000, MuRF1; 1:400, and Atrogin; 1:1:400) was added and reacted at 4° C. for over 16 hours. After 16 hours, cells were washed three times with TBST (Tris-buffered saline with Tween 20) and reacted with secondary antibody with horseradish peroxidase (HRP) conjugated at room temperature for 1 hour. It was washed three times with TBST and developed after adding Super Signal West Pico Chemiluminescent Substrate.

Substance	proliferation of cells compared to untreated cells (C2C12 cells [1]; C2C12, MSTN protein in proliferation medium, FIG. 3)	differentiation of cells compared to untreated cells (C2C12 cells [2]; C2C12, MSTN protein in differentiation medium, FIG. 3)	root canal formation compared to untreated cells (C2C12 cells [2]; C2C12, differentiation medium, 3 days)	cell proliferation, increase compared to cells without peptide treatment (C2C12 cells [1]; C2C12, peptide 1000 nM, 1 day, MTT, FIG. 4)	scratch recovery degree, increase compared to untreated cells (C2C12 cells [3])	fusion index, increase compared to untreated cells (C2C12 cells [2]; C2C12, differentiation medium including peptide, 3 days)	Atrogin1 mRNA expression (C2C12 cells [4])	MSTN mRNA expression (C2C12 cells [4])	MYH mRNA expression (C2C12 cells [4])	MSTN protein expression (C2C12 cells [5])	MYH protein expression (C2C12 cells [5])	MYL2 protein expression (C2C12 cells [5])	MYOD protein expression (C2C12 cells [5])	MYOG protein expression (C2C12 cells [5])	MuRF1 protein expression (C2C12 cells [5])
MSTN protein: myostatin protein that inhibits the proliferation and differentiation of myoblasts [reference compound]	reduced	reduced	reduced	–	–	–	–	–	–	–	–	–	–	–	–
VDFEAFWDWG [MIF1]	–	–	–	11%	22%	4%	decreased	decreased	increased	increased	increased	increased	increased	increased	decreased
